Columns and labels:
[1] = Percentage inhibition (100 uM) against protein tyrosine […]
[2] = biological target: T1, Neutral alpha-glucosidase AB (Homo sapiens) (UniProt Q14697); assay: Percentage inhibition (100 uM) against Alpha glucosidase
T1 sequence (whole entry): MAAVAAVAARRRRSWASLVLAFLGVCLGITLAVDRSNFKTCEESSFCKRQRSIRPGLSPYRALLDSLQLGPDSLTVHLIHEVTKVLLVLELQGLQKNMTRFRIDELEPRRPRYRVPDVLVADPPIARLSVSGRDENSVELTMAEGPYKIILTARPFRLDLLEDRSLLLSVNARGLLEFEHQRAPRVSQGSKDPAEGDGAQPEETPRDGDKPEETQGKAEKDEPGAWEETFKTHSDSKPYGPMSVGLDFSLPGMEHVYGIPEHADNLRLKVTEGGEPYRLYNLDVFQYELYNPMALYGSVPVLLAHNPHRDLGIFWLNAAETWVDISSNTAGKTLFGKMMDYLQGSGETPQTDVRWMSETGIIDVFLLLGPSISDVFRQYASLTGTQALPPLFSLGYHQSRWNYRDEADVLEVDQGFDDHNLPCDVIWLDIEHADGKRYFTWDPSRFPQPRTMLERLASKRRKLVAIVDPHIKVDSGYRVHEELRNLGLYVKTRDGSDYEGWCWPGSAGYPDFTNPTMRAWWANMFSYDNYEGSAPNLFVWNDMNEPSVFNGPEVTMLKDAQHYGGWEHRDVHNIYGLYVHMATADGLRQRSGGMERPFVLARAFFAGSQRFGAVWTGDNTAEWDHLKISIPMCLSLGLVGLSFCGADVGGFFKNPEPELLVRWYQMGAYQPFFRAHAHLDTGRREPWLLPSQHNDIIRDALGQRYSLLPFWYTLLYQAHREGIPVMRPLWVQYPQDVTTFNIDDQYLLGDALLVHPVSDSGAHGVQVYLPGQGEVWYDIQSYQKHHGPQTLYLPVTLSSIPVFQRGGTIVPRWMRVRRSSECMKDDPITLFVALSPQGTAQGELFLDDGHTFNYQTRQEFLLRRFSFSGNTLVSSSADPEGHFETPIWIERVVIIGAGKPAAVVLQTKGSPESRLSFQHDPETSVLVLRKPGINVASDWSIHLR

Compound | inhibition [1] [%] | inhibition [2] [%]
N#Cc1c(N2CCc3ccccc3C2)cc(-c2ccc(Cl)cc2)c2c1CCCCC2 | 42.8 | 47.4
N#Cc1c(N2CCc3ccccc3C2)cc(-c2cccc3ccccc23)c2c1-c1ccccc1CC2 | 51.8 | 94.8
N#Cc1c(N2CCc3ccccc3C2)cc(-c2ccc(Cl)cc2)c2c1CCCCCC2 | 24.2 | 28.8
N#Cc1c(N2CCc3ccccc3C2)cc(-c2cccc3ccccc23)c2c1-c1ccccc1SC2 | 41.9 | 98.7
N#Cc1c(N2CCc3ccccc3C2)cc(-c2ccc(Cl)cc2)oc1=O | 18.2 | 51.9
N#Cc1c(N2CCc3ccccc3C2)cc(-c2cccc3ccccc23)c2c1CCSC2 | 26.7 | 96.1
N#Cc1c(N2CCc3ccccc3C2)cc(-c2cccc3ccccc23)c2c1CCCC2 | 14.8 | 72.2
SODIUM ORTHOVANAD | 77.6 | 
N#Cc1c(N2CCc3ccccc3C2)cc(-c2ccc(Cl)cc2)c2c1CCCC2 | 23.2 | 20.7
N#Cc1c(-c2ccc(C(F)(F)F)cc2)cc(-c2ccc3ccc4cccc5ccc2c3c45)cc1N1CCCC1 | 12.5 | 93.8
C[C@H]1O[C@H](O[C@H]2[C@H](O)[C@@H](O)[C@@H](O[C@H]3[C@H](O)[C@@H](O)C(O)O[C@@H]3CO)O[C@@H]2CO)[C@H](O)[C@@H](O)[C@@H]1N[C@H]1C=C(CO)[C@@H](O)[C@H](O)[C@H]1O (some centres not stated) |  | 90
N#Cc1c(N2CCc3ccccc3C2)cc(-c2ccc(Br)cc2)oc1=O | 25.1 | 59.7

Reference: ChEMBL document CHEMBL1141999, “Biaryls and heterobiaryls as alpha-glucosidase and protein tyrosine phosphatase inhibitors” (Bioorg Med Chem Lett, 2005)
